US8865728B2, “Combinations comprising methotrexate and DHODH inhibitors” (Almirall, S.A., priority 2008, dated 2014)
pIC50: −log10 of the molar value. Entries after “also recorded” stand apart in the source; their conditions may differ.

Key:
[1] = Acute hepatotoxicity assay in Swiss mice (plasma liver markers); type: in vivo; details: for ALT plasma level / AST plasma level / BIL (total bilirubin) plasma level: Swiss mice, single 100 mg/kg intraperitoneal, 24 h after administration
Protocol: Acute hepatotoxicity assays were performed in Swiss mice. Animals received a single administration of either vehicle, or 100 mg/kg of teriflunomide or a compound of the present invention (compounds from the list indicated previously) by intraperitoneal route. Twenty-four hours later, animals were sacrificed and the levels of liver markers AST(aspartate aminotransferase), ALT(alanine aminotransferase) and BIL(total bilirubin) in plasma were determined.

human DHODH = human DHODH (Homo sapiens, UniProt Q02127); assay: Inhibition of human DHODH activity assay (DCIP chromogen reduction); type: biochemical; details: chromogen reduction assay with DCIP, human enzyme extract; read-out: hDHODH IC50
human DHODH, sequence (Q02127 whole entry): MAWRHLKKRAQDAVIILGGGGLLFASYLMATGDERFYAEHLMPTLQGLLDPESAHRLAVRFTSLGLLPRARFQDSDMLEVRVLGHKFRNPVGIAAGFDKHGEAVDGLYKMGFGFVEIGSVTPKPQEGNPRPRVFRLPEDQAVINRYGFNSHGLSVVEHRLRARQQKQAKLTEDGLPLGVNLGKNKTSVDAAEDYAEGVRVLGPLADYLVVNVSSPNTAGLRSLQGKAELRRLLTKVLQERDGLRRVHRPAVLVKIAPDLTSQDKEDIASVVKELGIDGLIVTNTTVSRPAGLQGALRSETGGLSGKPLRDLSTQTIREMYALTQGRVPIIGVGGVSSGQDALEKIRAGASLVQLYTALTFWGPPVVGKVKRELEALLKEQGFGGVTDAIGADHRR
Protocol: DHODH activity and its inhibition were studied using a chromogen reduction assay with DCIP (2,6-dichlorophenol-indophenol).
Enzyme extracts (8 μl, ˜1.5 μg of human protein) were incubated in 96-well plates. The assay mixture (200 μl) contained 200 μM CoQD, 100 μM L-DHO, 120 μM DCIP in the assay buffer (100 mM HEPES pH 8.0, 150 mM NaCl, 10% Glicerol, 0.05% Triton X-100) and 2 μl of test compound.
The reaction was initiated by adding the enzyme and then incubated for 10 min at room temperature before measuring DCIP reduction by counting a decrease in absorbance at 600 nm using standard instrumentation (Spectramax).
All reactions were carried out in duplicate and graphs, determining IC50 values for each compound, were plotted using the ABase software.

[2] = system: rat adjuvant-induced arthritis model (AIA); assay: Efficacy in rat adjuvant-induced arthritis model (AIA), curative protocol; type: in vivo, Wistar rats; details: arthritic rats, oral once a day, MTX 0.05 mg/Kg/day, AUC of right paw volumes days 10-21 vs vehicle; for % AUC inhibition right paw: Teriflunomide 3 mg/Kg/day, one experiment with 6 animals
Protocol: The effect of DHODH inhibitor compounds were tested in combination with methotrexate (0.05 mg/Kg/day) in the rat adjuvant-induced arthritis model (AIA) in animals with established disease (curative protocol). Briefly, Complete Freund Adjuvant (CFA) was injected into the left hind footpad of Wistar rats, and 10 days later the swelling of the two rear paws was measured with a plethysmometer. […] Compounds were administered orally once a day for 10 days and paw volumes were determined every two days up to day 21.

pIC50 (human DHODH) | SMILES | ALT plasma level [1] [IU/l] | AST plasma level [1] [IU/l] | BIL (total bilirubin) plasma level [1] [mg/dL] | % AUC inhibition right paw [2] [%] | % inhibition of the inflammation (AUC) Right paw ([2]; compound A 3 mg/Kg/day, mean of two independent experiments) [%] | change in plasma liver markers (ALT, AST, BIL) compared to vehicle-treated mice ([1]; mice, intraperitoneal route, 100 mg/kg)
 | COc1cccc(-c2ccc(Nc3ncccc3C(=O)O)c(F)c2)c1 [Compound 1, 2-(3-Fluoro-3′-methoxybiphenyl-4-ylamino)nicotinic acid] | 99 | 84 | 0.03 |  |  | 
 | CCOc1cccc(-c2ccc(Nc3ncccc3C(=O)O)c(F)c2)c1 [Compound 2, 2-(3′-Ethoxy-3-fluorobiphenyl-4-ylamino)nicotinic acid] | 35 | 57 | 0 |  |  | 
 | O=C(O)c1cccnc1Nc1ccc(-c2cccc(OC(F)(F)F)c2)cc1F [Compound 3, 2-(3-Fluoro-3′-(trifluoromethoxy)biphenyl-4-ylamino)nicotinic acid] | 52 | 83 | 0.01 |  |  | 
 | CCOc1cccc(-c2ccc(Nc3ncccc3C(=O)O)c(OC(F)(F)F)c2)c1 [Compound 4, 2-(3′-Ethoxy-3-(trifluoromethoxy)biphenyl-4-ylamino)nicotinic acid] | 70 | 108 | 0.05 |  |  | 
 | CCOc1cccc(-c2cc(F)c(Nc3ncccc3C(=O)O)c(F)c2)c1 [Compound 19, 2-(3′-Ethoxy-3,5-difluorobiphenyl-4-ylamino)nicotinic acid] | 60 | 92 | 0.05 |  |  | 
 | COc1cccc(-c2cc(F)c(Nc3ncccc3C(=O)O)c(F)c2)c1 [Compound 20, 2-(3,5-Difluoro-3′-methoxybiphenyl-4-ylamino)nicotinic acid] | 73 | 95 | 0 |  |  | 
 | COc1cccc(-c2ccc(Nc3cnccc3C(=O)[O-])c(OC(F)(F)F)c2)c1.[Li+] [Compound 23, Lithium 3-(3′-methoxy-3-(trifluoromethoxy)biphenyl-4-ylamino)isonicotinate] | 35 | 72 | 0 |  |  | 
7.92 | COc1cccc(-c2cc(F)c(Nc3ncc(C)cc3C(=O)O)c(F)c2)c1 [Compound 35, 2-(3,5-Difluoro-3′-methoxybiphenyl-4-ylamino)-5-methylnicotinic acid] |  |  |  |  |  | 
 | O=C(O)c1cccnc1Nc1c(F)cc(-c2cccc(OC3CC3)c2)cc1F [Compound 47, 2-(3′-cyclopropoxy-3,5-difluorobiphenyl-4-ylamino)nicotinic acid] | 66 | 91 | 0.14 |  |  | 
 | Cc1c(-c2ccccc2)cc(F)c(Nc2ncccc2C(=O)O)c1F [Compound 48, 2-(3,5-difluoro-2-methylbiphenyl-4-ylamino)nicotinic acid] | 44 | 95 | 0.08 |  |  | 
 | Cc1c(-c2ccccc2Cl)cc(F)c(Nc2ncccc2C(=O)O)c1F [Compound 57, 2-(2′-chloro-3,5-difluoro-2-methylbiphenyl-4-ylamino)nicotinic acid] | 60 | 109 | 0.06 |  |  | 
 | CN(Cc1cnc2nc(N)nc(N)c2n1)c1ccc(C(=O)N[C@@H](CCC(=O)O)C(=O)O)cc1 [MTX, Methotrexate] |  |  |  | 24 | 37 | 
 | C/C(O)=C(\C#N)C(=O)Nc1ccc(C(F)(F)F)cc1 [Teriflunomide, reference compound] | 423 | 542 | 0.5 | 56 |  | dramatic increase in the three liver markers; also recorded: drastic increase in the levels of transaminases and bilirrubin in plasma
